From article PMC4080980, “The pharmacokinetics of anthocyanins and their metabolites in humans” (British Journal of Pharmacology, 2014)
Marks after values point to notes of the source that are not given here.

How the values were obtained:
[1] = Serum pharmacokinetics after 500 mg oral bolus of 13C5-C3G (HPLC-ESI-MS/MS, non-compartmental analysis); format: in vivo, humans; settings: for Cmax: healthy men, mean ± SEM of participants in whom detected; for AUC(0-t) / AUC0-48: trapezoidal rule; for AUC(0-t): read-out: AUC0-48
Protocol: (§1) A detailed description of the clinical design was previously published ([Czank et al., 2013]). Briefly, a single 500 mg oral bolus dose of isotopically labelled C3G (^13C5-C3G) was fed to eight healthy male participants (body mass index, 18.5–30.5 kg·m^–2; aged 18–45 years) after an overnight fast (>8 h). Participants provided blood (baseline, 0.5, 1, 2, 4, 6, 24, 48 h), urine (individual voids between 0 and 6 h, total voids between 6–24 and 24–48 h), breath (baseline, 0.5, 1, 2, 4, 6, 24, 48 h) and faecal samples (all voids between 0–6, 6–24 and 24–48 h). The study was conducted at the Clinical Research and Trials Unit at the University of East Anglia according to the principles expressed in the Declaration of Helsinki and was approved by the Cambridgeshire 3 Research Ethics Committee (REC ref: 10/H0306/42) and registered at clinicaltrials.gov as NCT01106729.
(§2) Serum, urine and faecal samples were extracted by SPE and analysed by HPLC-ESI-MS/MS as recently described ([Czank et al., 2013]). The extraction efficiency was established as 87 ± 11% (coefficient of variation, CV; 6.8 ± 0.7%) for serum, 88 ± 18% (CV, 7.9 ± 0.8%) for urine and 81 ± 21% (CV, 14.1 ± 1.2%) for faeces (n = 3 replicates for each analyte). Sample extracts (5 μL) were injected onto a Kinetex PFP column (Phenomonex) and separated using an Agilent 1200 series HPLC with a QTrap 4000 linear ion trap mass spectrometer (ABSciex, Warrington, UK). […] Metabolite identification was performed by multiple reaction monitoring (MRM) optimized for the detection of pure standards with m/z of the parent and daughter fragments adjusted to +2,+3,+5 amu to allow identification of the ^13C-labelled metabolites derived from the B-ring, A-ring or the parent structure respectively. Metabolites were confirmed on the basis of retention time (using authentic and synthesized standards where possible) and three or more ion transitions. The HPLC-ESI-MS/MS method was validated for linearity and precision across all metabolites. Six point standard curves ranging from 1.25 to 20 μM were constructed from analytical standards and injected six times. The precision was established as 1.4–11.0% and linearity of the standard curves was established as r^2 = 0.991–1.000 (CV, 0.2%) across the identified metabolites.
(§3) Pharmacokinetic modelling of metabolites in the serum was performed with the PKSolver ‘add-on’ for Excel 2010 (Microsoft, […], USA) ([Zhang et al., 2010]) using non-compartmental analysis with the AUC calculated using the trapezoidal rule. Pharmacokinetic parameters were established for each individual analyte and presented as mean ± SEM. Urine samples collected during the first 6 h post-bolus were grouped together to the nearest hour time point (i.e. samples were not pooled but individual concentrations were averaged post-quantification) for graphical representation and to calculate total cumulative recovery. The concentration of metabolites was converted to amount recovered from urine by accounting for the molecular weight of the individual ^13C-labelled metabolites and the volume of the individual participants void and averaged across participants. Recovery of metabolites in the faeces was established from the molecular weight of the ^13C-labelled metabolite and the weight of the individual participants void adjusting for faecal water content as previously described ([Czank et al., 2013]). Urine and faecal recovery amounts are presented as mean ± SEM (n = 8), unless otherwise stated.

[2] = Faecal recovery after 500 mg oral bolus of 13C5-C3G; format: in vivo, humans; settings: faeces, 500 mg oral 13C5-C3G; for Recovery 6–24 h / Recovery 24–48 h: mean ± SEM
Protocol: The study was conducted at the Clinical Research and Trials Unit at the University of East Anglia according to the principles expressed in the Declaration of Helsinki and was approved by the Cambridgeshire 3 Research Ethics Committee (REC ref: 10/H0306/42) and registered at clinicaltrials.gov as NCT01106729.
Sample extracts (5 μL) were injected onto a Kinetex PFP column (Phenomonex) and separated using an Agilent 1200 series HPLC with a QTrap 4000 linear ion trap mass spectrometer (ABSciex, Warrington, UK). […] Metabolite identification was performed by multiple reaction monitoring (MRM) optimized for the detection of pure standards with m/z of the parent and daughter fragments adjusted to +2,+3,+5 amu to allow identification of the ^13C-labelled metabolites derived from the B-ring, A-ring or the parent structure respectively. […] The HPLC-ESI-MS/MS method was validated for linearity and precision across all metabolites.
Pharmacokinetic parameters were established for each individual analyte and presented as mean ± SEM. Urine samples collected during the first 6 h post-bolus were grouped together to the nearest hour time point (i.e. samples were not pooled but individual concentrations were averaged post-quantification) for graphical representation and to calculate total cumulative recovery. The concentration of metabolites was converted to amount recovered from urine by accounting for the molecular weight of the individual ^13C-labelled metabolites and the volume of the individual participants void and averaged across participants. […] Urine and faecal recovery amounts are presented as mean ± SEM (n = 8), unless otherwise stated.

[3] = Urinary elimination/recovery after 500 mg oral bolus of 13C5-C3G; format: in vivo, humans; settings: urine, single 500 mg oral 13C5-C3G; for Tmax: male, human, po, 500 mg, urine collection interval, read-out: Time at maximum concentration; for Total recovery: 0-48 h; for Total recovery / Maximum concentration: mean ± SEM
Protocol: as §1, §2, §3

[4] = set-up: method as in Czank et al., 2013; settings: ref Czank et al., 2013, cited from earlier work
plasma VCAM-1 = tested on: plasma VCAM-1; set-up: method as in Wang et al., 2010; settings: mice fed PCA; ref Wang et al., 2010; cited from earlier work
[5] = tested on: LPS-induced RAW 264.7 cells; set-up: method as in Min et al., 2010; settings: ref Min et al., 2010; cited from earlier work
[6] = tested on: vascular cell adhesion molecule-1 (VCAM-1); set-up: method as in Wang et al., 2010; settings: TNF-α-induced mouse aortic endothelial cells; ref Wang et al., 2010; cited from earlier work
plasma IL-6 = tested on: plasma IL-6; set-up: method as in Kim et al., 2010; settings: vanillic acid fed mice; ref Kim et al., 2010; cited from earlier work
[7] = male, human, serum, po, 500 mg, serum elimination half-life, single 500 mg oral 13C5-C3G, mean ± SEM
[8] = male, human, serum, po, 500 mg, serum, single 500 mg oral 13C5-C3G, mean ± SEM, read-out: tmax
[9] = male, human, serum, po, 500 mg, single 500 mg oral 13C5-C3G
[10] = male, human, serum, single 500 mg oral 13C5-C3G, mean ± SEM
[11] = serum, single 500 mg oral 13C5-C3G
[12] = serum, single 500 mg oral 13C5-C3G, mean ± SEM

OCC1OC(Oc2cc3c(O)cc(O)cc3[o+]c2-c2ccc(O)c(O)c2)C(O)C(O)C1O (stereo not shown) [Cyanidin-3-glucoside, 6,8,10,3′,5′-^13C5-cyanidin-3-glucoside]
half-life [1, 7]: 0.4 h
Tmax [1, 8]: 1.8 ± 0.2 h
Cmax [1, 9]: 141 ± 70 nM
AUC(0-t) [1, 10]: 0.279 ± 0.17 µM·h
share of the total metabolites found in the circulation ([1]; serum, 500 mg oral 13C5-C3G): 2%
Recovery 6–24 h [2]: 70.0 ^b μg
Recovery 24–48 h [2]: 19.6 ^b μg
Tmax [3]: 1 to 2 h
Total recovery [3]: 120.0 ± 54.1 µg
Maximum concentration [3]: 334 ± 145 nM
relative bioavailability ([4]; based on recovery of the 13C-label in urine and breath): 12.4 ± 1.4%
recovered 13C-label in faeces [4]: 32 ± 6%
recovery of the initial dose of 13C within the urine sample [4]: 12%

COc1ccc(C(=O)O)cc1O [IsoVA]
Cmax [1, 11]: 195 nM
Tmax [1, 12]: 2.0 h
AUC0-48 [1, 12]: 0.189 µM·h
Recovery 6–24 h [2]: 11.0 ^b μg
Recovery 24–48 h [2]: 8.5 ^b μg
Total recovery [3]: 79.5 ± 54.2 µg
Maximum concentration [3]: 212 ± 130 nM

COC(=O)c1ccc(O)c(O)c1 [Methyl-3,4-dihydroxybenzoate]
half-life [1, 7]: 21.6 ± 5.9 h
Tmax [1, 8]: 8.4 ± 5.7 h
Cmax [1, 9]: 12 ± 5 nM
AUC(0-t) [1, 10]: 0.171 ± 0.07 µM·h
Recovery 6–24 h [2]: 166.6 ± 100.6 ^g μg
Recovery 24–48 h [2]: 92.4 ± 49.4 ^f μg
Tmax [3]: 3 to 4 h
Total recovery [3]: 20.7 ± 8.0 µg
Maximum concentration [3]: 108 ± 39 nM

O=C(O)c1ccc(O)c(OC2OC(C(=O)O)C(O)C(O)C2O)c1 (stereo not shown) [PCA-3-glucuronide]
half-life [1, 7]: 18 ± 15.6 h
Tmax [1, 8]: 2.7 ± 1 h
Cmax [1, 9]: 11 ± 3 nM
AUC(0-t) [1, 10]: 0.06 ± 0.038 µM·h
Recovery 6–24 h [2]: 22.9 ± 22.0 ^g μg
Recovery 24–48 h [2]: 49.0 ^b μg
Tmax [3]: 1 to 2 h
Total recovery [3]: 197.7 ± 41.2 µg
Maximum concentration [3]: 301 ± 72 nM

O=C(O)c1ccc(OC2OC(C(=O)O)C(O)C(O)C2O)c(O)c1 (stereo not shown) [PCA-4-glucuronide]
t1/2 ([1]; serum elimination half-life, single 500 mg oral 13C5-C3G, mean ± SEM): 19.4 ± 3.1 h
Cmax [1, 11]: 68 ± 61 nM
Tmax [1, 12]: 3.8 ± 0.8 h
AUC0-48 [1, 12]: 0.618 ± 0.489 µM·h
Recovery 6–24 h [2]: 16.1 ± 17.5 µg
Recovery 24–48 h [2]: 20.4 ± 16.2 ^i μg
Total recovery [3]: 100.3 ± 30.2 µg
Maximum concentration [3]: 233 ± 65 nM

O=Cc1c(O)cc(O)cc1O [Phloroglucinaldehyde]
Tmax [1, 8]: 2.8 ± 1.1 h
Cmax [1, 9]: 582 ± 536 nM
AUC(0-t) [1, 10]: 7.88 ± 7.77 µM·h
Recovery 6–24 h [2]: 2.1 ± 1.3 ^e μg
Recovery 24–48 h [2]: 111.3 ± 78.7 ^f μg
Tmax [3]: 6 to 24 h
Total recovery [3]: 66.7 ± 21.3 µg
Maximum concentration [3]: 170 ± 42 nM

O=C(O)c1ccc(O)c(O)c1 [Protocatechuic acid (PCA), Protocatechuic acid]
half-life [1, 7]: 9.9 ± 3.4 h
Tmax [1, 8]: 3.3 ± 0.7 h
Cmax [1, 9]: 147 nM
AUC(0-t) [1, 10]: 1.38 ± 0.76 µM·h
Cmax [1, 11]: 146 ± 74 nM
Recovery 6–24 h [2]: 360.9 ± 278.1 ^c μg
Recovery 6–24 h ([2]; listed as PCA): 360.9 µg
Recovery 24–48 h [2]: 221.8 ± 134.9 ^d μg
plasma VCAM-1 levels (plasma VCAM-1): reduced
Tmax [3]: 1 to 2 h
Total recovery [3]: 71.6 ± 20.9 µg
Maximum concentration [3]: 337 ± 117 nM
production of TNF-α, IL-1β, NO, PGE2 and gene expression of NOS and COX-2 [5]: suppress
VCAM-1 protein and mRNA [6]: reduce

COc1cc(C(=O)O)ccc1OC1OC(C(=O)O)C(O)C(O)C1O (stereo not shown) [VA-4-glucuronide]
Cmax [1, 11]: 24 ± 4 nM
Tmax [1, 12]: 4.8 ± 0.4 h
AUC0-48 [1, 12]: 0.074 ± 0.011 µM·h
Recovery 0–6 h ([2]; 0–6 h (only 2 participants provided voids)): 3.6 ^b μg
Recovery 6–24 h [2]: 3.3 ^b μg
Recovery 24–48 h [2]: 9.5 ± 7.9 ^g μg
Total recovery [3]: 618.4 ± 109.7 µg
Maximum concentration [3]: 762 ± 124 nM

COc1cc(C(=O)O)ccc1O [Vanillic acid (VA), Vanillic acid]
plasma IL-6 (plasma IL-6): reductions
half-life [1, 7]: 6.4 h
Tmax [1, 8]: 12.5 ± 11.5 h
Cmax [1, 9]: 1840 ± 838 nM
Recovery 6–24 h [2]: 54.7 ± 1.6 ^h μg
Recovery 24–48 h [2]: 49.3 ± 21.4 ^g μg
Tmax [3]: 1 to 2 h
Total recovery [3]: 960.4 ± 350.0 µg
Maximum concentration [3]: 3412 ± 312 nM
